This is an account of results in US20250333370A1, “METHOD FOR EXTRACTING 3,5-O-DICAFFEOYLQUINIC ACID FROM HUANGSHAN GONGJU AND ITS APPLICATION IN DRUGS FOR PROTECTING AGAINST ALCOHOLIC LIVER DAMAGE” (Hefei University of Technology, priority 2024, published 2025).

In one data set the test system is AML-12 cells. The data set is described as follows: MTT cell survival, toxic effect of 3,5-O-dicaffeoylquinic acid on cells. It counts as cell-based, mouse. Particulars: for cell survival rate: AML-12 cells, 24 hours, MTT. As to the method: AML-12 cells, mouse normal liver cells; 3-(4,5-dimethylthiazol-2-yl)-2,5-diphenyl-2H-tetrazolium-3-bromide (MTT), dimethyl sulfoxide (DMSO), reactive oxygen species (ROS) kit, superoxide dismutase (SOD) kit, malondialdehyde (MDA) kit, glutathione (GSH) kit; high-speed centrifuge, microplate reader, etc.
Logarithmically growing AML-12 cells are seeded into 96-well plates at a density of 0.8×10^5 cells/mL, and 100 μL of cell suspension is added to each well and incubated for 24 hours. In an alcohol treatment group, alcohol (0-1600 mM, DMEM dilution) is added to the incubator for 24 hours. In a 3,5-O-dicaffeoylquinic acid treatment group, 100 μL of 3,5-O-dicaffeoylquinic acid (100-1600 μg/mL, DMEM dilution) is added to the incubator for 24 hours. 120 μL of MTT (1 mg/mL) is added to each well and incubated for 4 h. The reaction solution is discarded; 150 μL DMSO is added, and OD value is measured at a wavelength of 490 nm after shaking for 10 minutes in the dark.

For data set [1], the system named is alcohol-damaged AML-12 cells. Put plainly: MTT cell survival, ameliorative effect on cell alcohol damage (260 mM alcohol). The class given is cell-based, mouse. To be noted: pretreatment 24 hours, then 260 mM alcohol 24 hours. As to the method:
Log-growing AML-12 cells are collected and digested, and then seeded into a 96-well plate at a density of 0.8×10^5 cells/mL per well. After 24 hours of cell proliferation, the control (and model) group is incubated with 100 μL of medium for 48 hours; the 3,5-O-dicaffeoylquinic acid treatment group is incubated with different concentrations of 3,5-O-dicaffeoylquinic acid for 24 hours, and the original medium is discarded; the cells (in model and drug treated group) are incubated in 100 μL of medium containing 260 mM alcohol for 24 hours. The absorbance measurement method is the same as the item 2 above.
Cell survival rate is calculated using the following formula: […]

Data set [2] deals with alcohol-induced AML-12 cells. The data set is described as follows: ROS content determination (DCFH-DA, fluorescence microscope and flow cytometer). It counts as cell-based, mouse. To be noted: 260 mM alcohol. As for the experimental part: AML-12 cells are treated with drugs (100, 200, 400 μg/mL) for 24 h, and then treated with 260 mM alcohol for 24 h. After trypsin digestion and PBS washing, the probe from the ROS kit is added. First, incubation is conducted with 1 mL of DCFH-DA (diluted in serum-free DMEM) at 37° C. for 20 min. The supernatant is discarded after centrifugation, and the remaining is washed three times and resuspended in PBS. 10 μL of the resuspension is observed under a fluorescence microscope, and is further detected under a flow cytometer.

Data set [3] has as its system alcohol-induced AML-12 cells. Put plainly: Determination of MDA, SOD, CAT and GSH content (kits). The class given is cell-based, mouse. To be noted: 260 mM alcohol. The text has this: Excessive ROS in cells can cause oxidative reactions in proteins and unsaturated fatty acids. MDA is the final product of the oxidation of polyunsaturated fatty acids and is a marker of lipid peroxidation in cells, which is widely used in studies on oxidative stress. SOD, CAT, and GSH are important antioxidant enzymes in the body and play an important role in the body's systematic resistance to oxidative stress. […] After trypsin digestion and PBS washing, the MDA, SOD, CAT, and GSH content in the cells are detected according to the guidance of corresponding kits.

Data set [4] deals with alcohol-induced AML-12 cells. The data set is described as follows: Apoptosis and necrosis after alcohol damage (Hoechst, fluorescence microscope and flow cytometer). It counts as cell-based, mouse. Particulars: 260 mM alcohol. As to the method: AML-12 cells are treated with drugs (100, 200, 400 μg/mL) for 24 h, and then treated with 260 mM alcohol for 24 h. After trypsin digestion and PBS washing, probe from an apoptosis detection kit is added. First, incubation is conducted with 5 μL Hoechst (diluted in PBS) at 0° C. for 20 min. The supernatant is discarded after centrifugation, and the remaining is washed three times and resuspended in PBS. 10 μL of the resuspension is observed under a fluorescence microscope, and is further detected under a flow cytometer.
(A flow cytometer gives signals particle by particle.)

The conditions of data set [5]: studies have shown; cited from earlier work.
A further data set deals with α-glucosidase. To be noted: studies have shown; cited from earlier work.
The subject of data set [6] is focal cerebral ischemia-reperfusion injury. Particulars: rats; studies have shown; cited from earlier work.
Where [7] appears, read: 400 μg/mL pretreatment, fluorescence microscope.

As for `O=C(C=Cc1ccc(O)c(O)c1)OC1CC(O)(C(=O)O)CC(OC(=O)C=Cc2ccc(O)c(O)c2)C1O` (single isomer, unassigned) [3,5-O-dicaffeoylquinic acid], the cell survival rate entry in the data set with AML-12 cells (0-800 μg/mL) is reported as “increases significantly”; in the data set with AML-12 cells (1600 μg/mL, P<0.05) it was “decreases significantly”. Further, the “toxicity to AML-12 cells” value with AML-12 cells (concentration range of 0-800 μg/mL) was “non-toxic”. Further, in data set [1] (400 μg/mL, highest cell survival rate), the “increase of cell survival rate compared with the model group” value was determined as 19.90%. The “survival rate of alcohol-damaged AML-12 cells compared with model group” value in data set [1] (100-400 g/mL (so in the source)) is recorded as “significantly increase”. The “ROS fluorescence intensity of the cells compared to the alcohol-treated group (model group)” value in data set [2] (setting [7]) is given as “significantly reduces”. In addition, in data set [2] (100, 200, 400 μg/mL pretreatment, fluorescence microscope), the “fluorescence intensity of ROS versus model group, dependence on drug concentration” value was “gradually weakens with the increase of drug concentration”. Moreover, in data set [2] (pretreatment with different concentrations, as the drug concentration increases), the “ROS peak fluorescence intensity, flow cytometry” value is “shifts significantly to the right”. In addition, in data set [3] (200 μg/mL pretreatment), the “MDA content in cells, concentration of best effect” value is “most significant effect”. In addition, the GSH content in data set [3] (400 μg/mL pretreatment, increases from 53.39±2.16 mg/g protein) was determined as 82.14±1.67 mg/g protein. The “activity of CAT in cells” value in data set [3] (100-600 μg/mL pretreatment) was “significantly restore”. For the same compound, the “activity of SOD in cells” value in data set [3] (100-600 μg/mL pretreatment) is “significantly restore”. Also, in data set [3] (pretreatment at different concentrations), the “MDA content in cells” value is “significantly reduces”. Further, the “fluorescence intensity of apoptosis compared with the alcohol-treated group” value in data set [4] (setting [7]) is “significantly reduces”. For the same compound, the “cell survival rate (apoptosis/necrosis flow cytometry)” value in data set [4] (pretreatment with different concentrations, with the increase in drug concentration) is “gradually increases”. In data set [5], the antioxidant effects entry is recorded as “certain antioxidant effects”. The α-glucosidase inhibition result in the data set on α-glucosidase was “inhibits”. Besides, the “focal cerebral ischemia-reperfusion injury” value in data set [6] is “can mitigate”.
